Laboratory results as given in US11279708B2, “Amidino- and amino-rocaglates as novel translation inhibitors and anticancer agents” (priority 2019, dated 2022).

How the values were obtained:
[1] = system: cap-dependent translation; experiment: in vitro translation of (AG)10- and (UC)10-FF/HCV/Ren mRNA reporters in Krebs-2 extracts; format: biochemical; details: cap-proximal (AG)10 or (UC)10
Experimental: Rocaglates show differing mRNA targeting spectra in translation assays. The in vitro experiments described above investigating the rocaglate-mediated inhibition of cap-dependent translation were performed at a fixed rocaglate concentration (2 μM) using a generic bicistronic mRNA reporter in Krebs-2 cell-free translation extracts (FIG. 19C). To better assess the consequences of eIF4A:polypurine clamping on the initiation process, we designed a series of bicistronic reporters harboring cap-proximal polypurine tracks of varying lengths in their 5′ leader region (FIG. 22A). […] We reasoned that these reporters would provide a sensitized readout for rocaglate-induce clamping of eIF4A at this location.
We next tested the response of mRNA reporters containing cap-proximal (AG)10 or (UC)10 sequences (FIG. 22A). […] The difference in activity observed between CR-1-31-B (23) and silvestrol 1 was not restricted to cap-proximal polypurine tracks, but also observed with reporters where the polypurine/polypyrimidine tracks were situated 15 nt downstream from the cap (FIGS. 24A and 24B).
In Vitro Translation Assays. In vitro translation assays performed in Krebs-2 cell extracts were supplemented with 5 mM MgCl2, 30 mM Tris-HCl (pH 7.5), 1.5 mM ATP, 0.1 mM GTP, 0.6 mM CTP, 10 mM dipotassium creatine phosphate, 80 μg/mL creatine kinase, and 0.04 mM amino acids. The specified mRNA reporters were added to each reaction at a final concentration of 10 ng/μL. The translation reactions were incubated with or without compound for 60 minutes at 30° C. prior to the measurement of luciferase activities.
FIGS. 23A-23C. The presence of polypurines bases in mRNA 5′ leader regions are not universal predictors of rocaglate-responsiveness. FIG. 23A. Schematic diagram of FF/HCV/Ren mRNA reporters containing cap-proximal (AG) or (UC) dinucleotide repeats. 23B. Firefly and renilla luciferase activity in response to the indicated CR-1-31-B (23) concentrations (relative to DMSO controls) in Krebs-2 extracts programmed with 4 ng/uL of the indicated mRNAs. n=3±SD. 23C. Dose response of the indicated compounds in Krebs-2 extracts programmed with 4 ng/μL of the indicated mRNAs. n=3± SD.
FIG. 23. Dose-response of (AG)10- and (UC)10-FF/HCV/Ren mRNAs to CMLD011167, hippuristanol and pateamine A in vitro. Firefly and renilla luciferase activity in response to the indicated compound concentrations (relative to DMSO controls) in Krebs-2 extracts programmed with 4 ng/μL of the indicated mRNAs. n=3± SD.

HEK 293 cells = experiment: in cellula translation of transfected (AG)10- and (UC)10-FF/HCV/Ren mRNA; format: cell-based; details: compound added 1 h after mRNA transfection, 6 h exposure
Description: We next asked if differences in behavior among rocaglates towards the (AG)10- and (UC)10-reporters observed in vitro also extended in cellula (FIG. 26B). This was important since in cells, mRNA transcripts need to compete for components of the translation initiation machinery from a complex cellular mRNA pool and this scenario is difficult to recapitulate in experiments using cell-free extracts. Following mRNA transfections, cells were exposed to compound and luciferase activity determined.
RNA Transfections. HEK 293 cells were transfected in a 24 well plate with 0.25 μg/well of in vitro synthesized capped m^7GpppG(AG)10-FF/HCV/Ren or m^7GpppG(UC)10FF/HCV/Ren mRNA and 1 h later were exposed to the indicated concentrations of compounds for an additional 6 h. Following this, extracts were prepared using passive lysis buffer (PLB, Promega) and luciferase activity measured on a Berthold Lumt LB 9507 luminometer.
FIGS. 26A-26B. In cellula activity of rocaglates. 26A. Cytotoxicity of rocaglates towards NIH/3T3 (grey circle) and the NIH/3T3 rocaglate-resistant line, eIF4A^em1JP(redtriangle). Cells were exposed to 40 nM compound for 4 days and viability was measured using the SRB assay. n=3±SD. 26B. Rocaglates show different sequence preferences for inhibiting cap-dependent translation in cellula. HEK 293 cells were transfected with 0.5 μg of in vitro synthesized capped (AG)10-FF/HCV/Ren or (UC)10-FF/HCV/Ren mRNA and 1h later exposed to the indicated concentrations of compounds for an additional 6 h, at which time extracts were prepared and luciferase activity measured. n=3 SD.
FIG. 28. In cellula dose-response of (AG)10- and (UC)10-FF/HCV/Ren mRNAs to hippuristanol and pateamine. Firefly and renilla luciferase activity in response to the indicated compound concentrations (relative to DMSO controls) following mRNA transfections in 293 cells. n=3±SD.

eIF4F = biological target: T1, eIF4F (Mus musculus, UniProt P60843); experiment: trans-inhibition and eIF4F rescue in Krebs-2 translation extracts; format: biochemical; details: for effect of added eIF4F on compound-induced inhibition (in words): 100 nM compound, eIF4F 10 nM; for effect of m7GpppG-(AG)10 competitor RNA on (UC)10-FF/HCV/Ren translation (in words): 25-fold molar excess competitor
T1 construct: endogenous in cells; host or cells: Krebs-2 cell-free translation extract
T1 sequence (P60843 2-406 limits assumed): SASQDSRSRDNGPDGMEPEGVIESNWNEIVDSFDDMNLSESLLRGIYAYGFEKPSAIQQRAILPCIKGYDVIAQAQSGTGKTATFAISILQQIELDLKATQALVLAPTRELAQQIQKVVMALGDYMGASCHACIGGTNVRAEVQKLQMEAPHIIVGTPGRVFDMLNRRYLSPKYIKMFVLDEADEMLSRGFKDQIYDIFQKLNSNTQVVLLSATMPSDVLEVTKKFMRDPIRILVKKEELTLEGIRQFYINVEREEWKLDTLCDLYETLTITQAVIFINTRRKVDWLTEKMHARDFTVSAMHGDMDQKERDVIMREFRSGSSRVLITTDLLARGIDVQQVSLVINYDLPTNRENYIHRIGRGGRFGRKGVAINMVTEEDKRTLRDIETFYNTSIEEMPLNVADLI
T1 sequence (P63073 2-217 partner limits assumed): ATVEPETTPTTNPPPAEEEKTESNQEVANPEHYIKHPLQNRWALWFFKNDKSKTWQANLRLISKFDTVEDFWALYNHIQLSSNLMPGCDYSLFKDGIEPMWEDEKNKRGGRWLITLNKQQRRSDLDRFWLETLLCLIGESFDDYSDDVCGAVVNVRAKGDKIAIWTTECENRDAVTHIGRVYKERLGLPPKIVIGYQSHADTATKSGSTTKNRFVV
T1 sequence (Q6NZJ6 whole entry partner): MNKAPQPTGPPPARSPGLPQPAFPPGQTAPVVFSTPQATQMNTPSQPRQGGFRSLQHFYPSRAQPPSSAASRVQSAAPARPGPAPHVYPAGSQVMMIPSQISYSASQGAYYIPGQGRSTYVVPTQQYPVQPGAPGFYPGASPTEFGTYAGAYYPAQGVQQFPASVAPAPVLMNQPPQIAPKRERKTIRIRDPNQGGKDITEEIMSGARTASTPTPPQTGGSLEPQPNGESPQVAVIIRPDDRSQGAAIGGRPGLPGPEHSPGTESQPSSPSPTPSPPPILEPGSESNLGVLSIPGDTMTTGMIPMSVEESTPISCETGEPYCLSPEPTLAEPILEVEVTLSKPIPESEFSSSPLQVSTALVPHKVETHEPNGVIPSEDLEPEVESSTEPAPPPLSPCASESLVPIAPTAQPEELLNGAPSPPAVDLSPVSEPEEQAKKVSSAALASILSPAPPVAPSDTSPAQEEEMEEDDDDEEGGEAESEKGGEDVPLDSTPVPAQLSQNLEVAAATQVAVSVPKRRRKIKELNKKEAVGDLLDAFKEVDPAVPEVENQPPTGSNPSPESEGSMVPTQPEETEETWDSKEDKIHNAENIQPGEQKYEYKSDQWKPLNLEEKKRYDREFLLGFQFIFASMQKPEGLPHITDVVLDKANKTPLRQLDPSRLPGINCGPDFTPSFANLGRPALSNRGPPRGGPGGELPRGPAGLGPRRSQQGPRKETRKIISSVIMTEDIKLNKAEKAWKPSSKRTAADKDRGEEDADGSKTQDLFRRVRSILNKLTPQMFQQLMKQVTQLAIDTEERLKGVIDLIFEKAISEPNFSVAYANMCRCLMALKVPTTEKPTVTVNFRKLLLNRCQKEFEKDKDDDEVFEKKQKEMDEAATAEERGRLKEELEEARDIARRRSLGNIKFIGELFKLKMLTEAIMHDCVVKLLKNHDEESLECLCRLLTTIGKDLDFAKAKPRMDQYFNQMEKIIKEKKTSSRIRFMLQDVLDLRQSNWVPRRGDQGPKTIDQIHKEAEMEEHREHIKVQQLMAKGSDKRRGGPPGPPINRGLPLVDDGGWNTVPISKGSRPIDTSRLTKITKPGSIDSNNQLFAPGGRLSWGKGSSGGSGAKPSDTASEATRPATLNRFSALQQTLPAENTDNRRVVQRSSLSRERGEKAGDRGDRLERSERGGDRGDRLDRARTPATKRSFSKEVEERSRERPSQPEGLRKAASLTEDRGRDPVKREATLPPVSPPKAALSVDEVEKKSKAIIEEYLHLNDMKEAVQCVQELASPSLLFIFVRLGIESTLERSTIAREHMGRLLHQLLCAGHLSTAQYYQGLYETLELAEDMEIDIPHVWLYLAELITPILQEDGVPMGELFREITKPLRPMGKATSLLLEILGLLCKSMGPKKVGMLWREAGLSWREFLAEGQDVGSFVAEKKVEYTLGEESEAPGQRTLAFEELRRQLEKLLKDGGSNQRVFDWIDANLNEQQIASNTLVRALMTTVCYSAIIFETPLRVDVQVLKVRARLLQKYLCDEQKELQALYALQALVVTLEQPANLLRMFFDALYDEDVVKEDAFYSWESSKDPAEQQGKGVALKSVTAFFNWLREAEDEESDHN
Description: In addition to a primary effect on translation of the target mRNA to which eIF4F is clamped by the rocaglate, this retention is predicted to lead to a reduction in the limiting eIF4F pool available for ribosome recruitment and could exert a trans-inhibitory effect on mRNAs that are not directly-targeted by rocaglates (i.e., absence of polypurine regions in their 5′ leader regions). To test this, we programmed in vitro translation reactions with (UC)10-FF/HCV/Ren mRNA which we found to be unresponsive to CR-1-31-B (23) and RocA (2) (FIG. 22). These were then supplemented with a 25-fold molar excess m^7GpppG-(AG)10 (SEQ ID NO: 10) or ApppG-(AG)10 (SEQ ID NO: 11) competitor RNA (FIG. 30B). […] In contrast, addition of ApppG-(AG)10 (SEQ ID NO: 11) and CR-1-31-B (23) or RocA (2) had little impact on translation of (UC)10-FF/HCV/Ren mRNA, indicating this to be a cap-dependent phenomenon (FIG. 30C, blue dotted line). If rocaglates decrease the pool of active eIF4F complexes, we posit that the addition of eIF4F to translation extracts should rescue rocaglate-mediated inhibition.
FIGS. 30A-30B. Rocaglates exert effects on eIF4F activity. 30A. RPDs performed with m^7GpppG-capped RNA incubated in the presence of retic lysate and either vehicle or 500 nM rocaglate. 30B. Schematic diagram showing assay assessing trans-inhibition of rocaglates. 30C. The presence of m^7GpppG capped, but not ApppG capped, purine-rich RNAs sensitizes the rocaglate-unresponsive m^7GpppG(UC)10-FF/HCV/Ren reporter to inhibition. Translation reactions were performed in Krebs-2 extracts with 10 nM of m^7GpppG(UC)10-FF/HCV/Ren reporter and 250 nM of competitor RNA. Reactions were incubated at 30° C. for 60 min prior to luciferase measurement. n=3±SD. 30D. The addition of recombinant eIF4F rescues rocaglate mediated translation inhibition. The m^7GpppG(AG)10-FF/HCV/Ren reporter was added to Krebs-2 translation extracts in the presence eIF4F and 100 nM of the indicated compound. Reactions were incubated at 30° C. for 60 min prior to luciferase measurement. n≥3, ±SEM

SMILES	inhibition of (AG)10 versus (UC)10 reporter in vitro (in words) [1]	inhibition of (AG)10 versus (UC)10 reporter in cellula (in words) (HEK 293 cells)	effect of added eIF4F on compound-induced inhibition (in words) (eIF4F)	effect of m7GpppG-(AG)10 competitor RNA on (UC)10-FF/HCV/Ren translation (in words) (eIF4F)
COC(=O)[C@@H]1[C@@H](c2ccccc2)[C@]2(c3ccc(OC)cc3)Oc3cc(OC)cc(OC)c3[C@@]23N=C(C)N[C@@]13O [9b]	equally inhibited translation of both (AG)10 and (UC)10 reporters	slight preference for inhibiting the (AG)10-FF/HCV/Ren reporter mRNA		
CONC(=O)[C@H]1[C@@H](O)[C@@]2(O)c3c(OC)cc(OC)cc3O[C@@]2(c2ccc(OC)cc2)[C@@H]1c1ccccc1 [CR-1-31-B]	inhibited cap-dependent translation (FLuc) from only the (AG)10-containing mRNA	showed preference for inhibiting (AG)10-FF/HCV/Ren over (UC)10-FF/HCV/Ren mRNA	partially rescue	sensitized (UC)10-FF/HCV/Ren mRNA to inhibition
COc1ccc([C@@]23Oc4cc(OC)cc(OC)c4[C@]2(O)[C@H](O)[C@H](C(=O)N(C)C)[C@H]3c2ccccc2)cc1 [RocA, rocaglamide A]	inhibited cap-dependent translation (FLuc) from only the (AG)10-containing mRNA			sensitized (UC)10-FF/HCV/Ren mRNA to inhibition
COC(=O)[C@H]1[C@@H](O)[C@@]2(O)c3c(OC)cc(O[C@@H]4O[C@@H]([C@H](O)CO)CO[C@H]4OC)cc3O[C@@]2(c2ccc(OC)cc2)[C@@H]1c1ccccc1 [silvestrol]	equally inhibited both mRNA reporters	inhibited both reporters equally	partially rescue	
